Results reported in PMC8587750, “Structural Optimization and Biological Activity of Pyrazole Derivatives: Virtual Computational Analysis, Recovery Assay and 3D Culture Model as Potential Predictive Tools of Effectiveness against Trypanosoma cruzi” (Molecules, 2021).
Like-named read-outs stand apart in the source and are kept apart here.

Assays:
[1] = system: intracellular amastigotes of T. cruzi; experiment: Activity against intracellular amastigotes in infected Vero cells (Dm28c-Luc, 72 h); format: cell-based, Trypanosoma cruzi; settings: for IC50 / IC90: Trypanosoma cruzi; for IC50: Vero; for Intracellular Amastigotes SI: CC50 of Vero cells/IC50 of intracellular amastigote; for IC90: read-out: Trypanocidal Activity Intracellular Amastigotes IC90; for fold drop in activity on moving Cl or Br to the meta position: 3b compared to 3g, 3k compared to 3j
Text: (§1) T. cruzi Dm28c clone genetically modified to express luciferase, kindly provided by Dr. Cristina Henriques from Oswaldo Cruz Institute–Fiocruz, was used in the drug assays. Trypomastigotes were harvested from T. cruzi-infected Vero cultures supernatants at 4th days post-infection (dpi) and used in the phenotypic screening assay. For intracellular amastigotes assays, Vero cells (2D and 3D cultures) were infected at a ratio of 10:1 parasites/host cells.
The effect of the pyrazole derivatives against intracellular amastigotes was also evaluated after 72 h treatment (37 °C) with compound concentrations ranging from 0.04–100 µM [13]. Parasite viability, measured by luminescent signal, was determined after luciferin (300 µg/mL) addition. IC50 and IC90 values were calculated by linear regression. Selectivity index (SI) was calculated as the ratio of the CC50 to IC50 values. The non-toxic concentration of DMSO (less than 1% v/v) was used in all assays. A minimum of three independent assays was carried out in duplicate.

[2] = Cytotoxicity in vitro assay (ATP, CellTiter Glo, 72 h); format: cell-based; settings: African green monkey, Vero cells
Experimental: Vero cells, obtained from the Rio de Janeiro Cell Bank (BCRJ code 0245), were cultured in RPMI-1640 supplemented with 10% fetal bovine serum (FBS) and 1 mM L-glutamine, as previously described. Vero cells were used for drug screening assays and to obtain trypomastigote forms of T. cruzi.
Vero cells were used as a cellular model to analyze the toxic effect of pyrazole derivatives, series 1(a–l), 2(a–l), 3(a–n), 4(a–c), and 5(a–c), and Benznidazole (Bz) on mammalian cells. Briefly, the cells, plated on 96-well white opaque microplate (1.5 × 10^4 cells/well), were treated for 72 h at 37 °C with a wide range concentration (500–1.95 µM) of the pyrazole derivatives. The cell viability was determined by measuring ATP levels using the CellTiter Glo Kit (Promega Corporation, Madison, WI, EUA) followed by reading the luminescent signal on the Glomax-Multi Detection plate reader (Promega Corporation, Madison, WI, EUA)). All treatments and controls were performed at a low concentration of DMSO (≤1%). The 50% cytotoxic concentration values (CC50; the concentration of the compound that reduces 50% of the cell viability) were estimated by linear regression analysis. Three independent assays were performed in duplicate.

[3] = system: trypomastigote forms of T. cruzi; experiment: Phenotypic screening against T. cruzi trypomastigotes (Dm28c-Luc, luciferase viability, 24 h); format: cell-based, Trypanosoma cruzi; settings: for IC50 / IC90: Trypanosoma cruzi, Dm28c-Luc, 24 h; for IC50: read-out: Trypanocidal Activity Trypomastigotes IC50; for Trypomastigotes SI: CC50 of Vero cells/IC50 of trypomastigote; for IC90: read-out: Trypanocidal Activity Trypomastigotes IC90
Text: as §1
The phenotypic compound screening was performed using transgenic T. cruzi parasites expressing the firefly luciferase (Dm28c-Luc). Trypomastigotes (1 × 10^6 parasites/well) were treated for 24 h at 37 °C with the pyrazole derivatives and Bz (0.04–100 μM), followed by incubation with luciferin substrate (300 µg/mL) to determine parasite viability through luciferase activity. The concentration that reduces the number of viable parasites by 50% (IC50) or 90% (IC90) was calculated by linear regression. The luminescent signal was read on a Glomax-Multi Detection plate reader (Promega Corporation, Madison, WI, EUA)). At least three independent assays were performed in duplicate.

[4] = negative log of the IC50 value in molar, read-out: Intracellular Amastigotes pIC50 (converted)
[5] = 72 h, Vero cells infected with Dm28c-Luc, 72 h, read-out: Trypanocidal Activity Intracellular Amastigotes IC50
[6] = Vero cells infected with Dm28c-Luc, 72 h

SMILES | melting point | IC50 [1, 4] | CC50 at 72 h [2] | IC50 [3] | Intracellular Amastigotes SI [1] | IC50 [1, 5] | IC90 [1, 6] | fold drop in activity on moving Cl or Br to the meta position [1] | Trypomastigotes SI [3] | IC90 [3]
NC(=O)c1cnn(-c2ccc(F)cc2)c1N [Compound 2g, 5-amino-1-(4-fluorophenyl)-1H-pyrazole-4-carboxamide] | 232 to 234 °C | > 70.8 µM |  |  |  |  |  |  |  | 
NC(=O)c1cnn(-c2cccc(F)c2)c1N [Compound 2h, 5-amino-1-(3-fluorophenyl)-1H-pyrazole-4-carboxamide] | 178 to 182 °C | > 70.8 µM |  |  |  |  |  |  |  | 
NC(=O)c1cnn(-c2ccc(Br)cc2)c1N [Compound 2i, 5-amino-1-(4-bromophenyl)-1H-pyrazole-4-carboxamide] | 138 to 142 °C | > 70.8 µM |  |  |  |  |  |  |  | 
NC(=O)c1cnn(-c2cccc(Br)c2)c1N [Compound 2j, 5-amino-1-(3-bromophenyl)-1H-pyrazole-4-carboxamide] | 138 to 142 °C | > 70.8 µM |  |  |  |  |  |  |  | 
COc1ccc(-n2ncc(C(N)=O)c2N)cc1 [Compound 2k, 5-amino-1-(4-methoxyphenyl)-1H-pyrazole-4-carboxamide] | 214 to 218 °C | > 70.8 µM |  |  |  |  |  |  |  | 
NC(=O)c1cnn(-c2cccc(Cl)c2Cl)c1N [Compound 2l, 5-amino-1-(2,3-dichlorophenyl)-1H-pyrazole-4-carboxamide] | 160 to 164 °C | > 70.8 µM |  |  |  |  |  |  |  | 
c1ccc(-n2cc(C3=NCCN3)cn2)cc1 [Compound 3a, 4-(4,5-dihydro-1H-imidazol-2-yl)-1-phenyl-1H-pyrazole] | 149 to 150 °C | 93.3 µM | > 500 µM | > 100 µM | >5.44 | 91.8 ± 2.03 µM | > 100 µM |  |  | 
Clc1cccc(-n2cc(C3=NCCN3)cn2)c1 [Compound 3b, 1-(3-chlorophenyl)-4-(4,5-dihydro-1H-imidazol-2-yl)-1H-pyrazole] | 120 to 124 °C | 28.2 µM | 267 ± 28.1 µM | > 100 µM | 9.48 | 28.2 ± 1.81 µM | 86.6 ± 5.55 µM | five |  | 
Clc1ccc(-n2cc(C3=NCCN3)cn2)c(Cl)c1 [Compound 3c, 1-(2,4-dichlorophenyl)-4-(4,5-dihydro-1H-imidazol-2-yl)-1H-pyrazole] | 110 to 111 °C | 56.2 µM | 409 ± 16.2 µM | > 100 µM | 7.21 | 56.6 ± 2.52 µM | 94.6 ± 3.61 µM |  |  | 
Clc1cc(Cl)cc(-n2cc(C3=NCCN3)cn2)c1 [Compound 3d, 1-(3,5-dichlorophenyl)-4-(4,5-dihydro-1H-imidazol-2-yl)-1H-pyrazole] | 83 to 84 °C | 55 µM | 384 ± 23 µM | 66.3 ± 5.53 µM | 6.99 | 54.9 ± 7.12 µM | > 100 µM |  | 5.78 | 93.5 ± 1.56 µM
Clc1ccc(-n2cc(C3=NCCN3)cn2)cc1Cl [Compound 3e, 1-(3,4-dichlorophenyl)-4-(4,5-dihydro-1H-imidazol-2-yl)-1H-pyrazole] | 185 to 186 °C | 75.9 µM | 480 ± 21.7 µM | 64.9 ± 2.85 µM | 6.26 | 76.5 ± 8.79 µM | > 100 µM |  | 7.39 | 93.74 ± 0.73 µM
Clc1cccc(Cl)c1-n1cc(C2=NCCN2)cn1 [Compound 3f, 1-(2,6-dichlorophenyl)-4-(4,5-dihydro-1H-imidazol-2-yl)-1H-pyrazole] | 221 to 223 °C | 81.3 µM | > 500 µM | > 100 µM | >6 | 82 ± 2.52 µM | > 100 µM |  |  | 
Fc1ccc(-n2cc(C3=NCCN3)cn2)cc1 [Compound 3h, 4-(4,5-dihydro-1H-imidazol-2-yl)-1-(4-fluorophenyl)-1H-pyrazole] | 210 to 212 °C | 64.6 µM | > 500 µM | > 100 µM |  | 64.5 ± 3.81 µM | > 100 µM |  |  | 
Fc1cccc(-n2cc(C3=NCCN3)cn2)c1 [Compound 3i, 4-(4,5-dihydro-1H-imidazol-2-yl)-1-(3-fluorophenyl)-1H-pyrazole] | 164 to 167 °C | 64.6 µM | > 500 µM | > 100 µM |  | 64.1 ± 7.09 µM | > 100 µM |  |  | 
Brc1cccc(-n2cc(C3=NCCN3)cn2)c1 [Compound 3k, 1-(3-bromophenyl)-4-(4,5-dihydro-1H-imidazol-2-yl)-1H-pyrazole] | 116 to 120 °C | 26.9 µM | 211 ± 31.7 µM | > 100 µM | 7.84 | 26.9 ± 2.19 µM | 72.9 ± 3.67 µM | 10 fold |  | 
COc1ccc(-n2cc(C3=NCCN3)cn2)cc1 [Compound 3l, 4-(4,5-dihydro-1H-imidazol-2-yl)-1-(4-methoxyphenyl)-1H-pyrazole] | 196 to 197 °C | 72.4 µM | > 500 µM | > 100 µM | >7 | 71.8 ± 2.71 µM | > 100 µM |  |  | 
Cc1cc(Cl)ccc1-n1cc(C2=NCCN2)cn1 [Compound 3n, 1-(4-chloro-2-methylphenyl)-4-(4,5-dihydro-1H-imidazol-2-yl)-1H-pyrazole] | 174 to 176 °C | 24.5 µM | 342 ± 30 µM | > 100 µM | 13.86 | 24.7 ± 3.42 µM | 85.7 ± 5.03 µM |  |  | 
Cc1nn(-c2cccc(Cl)c2)c(N)c1C1=NCCN1 [Compound 4a, 5-amino-1-(3-chlorophenyl)-3-methyl-4-(4,5-dihydro-1H-imidazol-2-yl)-1H-pyrazole] | 116 to 120 °C | > 100 µM | > 500 µM | > 100 µM |  | > 100 µM | > 100 µM |  |  | > 100 µM
Cc1nn(-c2cc(Cl)cc(Cl)c2)c(N)c1C1=NCCN1 [Compound 4b, 5-amino-1-(3,5-dichlorophenyl)-3-methyl-4-(4,5-dihydro-1H-imidazol-2-yl)-1H-pyrazole] | 193 to 194 °C | 91.2 µM | > 500 µM | > 100 µM | >5.51 | 90.7 ± 13.2 µM | > 100 µM |  |  | > 100 µM
